Test results taken from patent publication US10383880B2 (Reset Therapeutics, Inc., priority 2012, dated 2019).

System: Per2-dLuc U2OS reporter cells
Assay: Per2 assay for evaluating the potency of test compounds (high-throughput circadian assay)
Type: cell-based
Conditions: Homo sapiens, U2OS, stable U2OS reporter cells harboring Per2-dLuc; luminescence monitored over 4-5 days at 35° C.
How it was run: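 Compounds (0.5% DMSO final) were added right after serum-shock synchronization of Per2-dLuc U2OS reporter cells in minimal medium containing 1.0 mM beetle luciferin. Reporter luminescence was followed at 35 °C for 4–5 days to extract rhythm period, amplitude and phase, and EC50 values were obtained from these.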

Row | SMILES | EC50 [nM]
1 | COCCN(CC(O)Cn1c2ccccc2c2ccccc21)S(C)(=O)=O (stereo not shown) [Compound 30, N-(3-(9H-Carbazol-9-yl)-2-hydroxypropyl)-N-(2-methoxyethyl)methanesulfonamide] | 390
2 | CS(=O)(=O)N(CC(O)Cn1c2ccccc2c2ccccc21)C1CC(F)(F)C1 (stereo not shown) [Compound 133, N-(3-(9H-Carbazol-9-yl)-2-hydroxypropyl)-N-(3,3-difluorocyclobutyl)methanesulfonamide] | 1530
3 | CS(=O)(=O)N(CC(O)Cn1c2cc(F)ccc2c2ccc(F)cc21)C1CCC1 (stereo not shown) [Compound 160, N-Cyclobutyl-N-(3-(2,7-difluoro-9H-carbazol-9-yl)-2-hydroxypropyl)methanesulfonamide] | 605
4 | CS(=O)(=O)N(Cc1ccco1)CC(O)Cn1c2cc(F)ccc2c2ccc(F)cc21 (stereo not shown) [Compound 93, N-(3-(2,7-Difluoro-9H-carbazol-9-yl)-2-hydroxypropyl)-N-(furan-2-ylmethyl)methanesulfonamide] | 2890
5 | O=S1(=O)N(CC(O)Cn2c3ccc(F)cc3c3cc(F)ccc32)CCCN1C1CCCCC1 (stereo not shown) [Compound 222, 2-(3-(3,6-Difluoro-9H-carbazol-9-yl)-2-hydroxypropyl)-6-cyclohexyl-1,2,6-thiadiazinane-1,1-dioxide] | 7120
6 | CC1CCCCC1N(CC(O)Cn1c2ccccc2c2ccccc21)S(C)(=O)=O (single isomer, unassigned) [Compound 127, N-(3-(9H-Carbazol-9-yl)-2-hydroxypropyl)-N-(2-methylcyclohexyl)methanesulfonamide] | 4010
7 | CC(CN(CC(O)Cn1c2ccccc2c2ccccc21)S(C)(=O)=O)c1ccccc1 (stereo not shown) [Compound 70, N-(3-(9H-Carbazol-9-yl)-2-hydroxypropyl)-N-(2-phenylpropyl)methanesulfonamide] | 8970
8 | CCN1CCCN(CC(O)Cn2c3ccc(F)cc3c3cc(F)ccc32)S1(=O)=O (stereo not shown) [Compound 226, 2-(3-(3,6-Difluoro-9H-carbazol-9-yl)-2-hydroxypropyl)-6-ethyl-1,2,6-thiadiazinane-1,1-dioxide] | 314
9 | CN1CCCN(CC(C)(O)Cn2c3ccc(F)cc3c3cc(F)ccc32)S1(=O)=O (stereo not shown) [Compound 170, 2-(3-(3,6-Difluoro-9H-carbazol-9-yl)-2-hydroxy-2-methylpropyl)-6-methyl-1,2,6-thiadiazinane-1,1-dioxide] | 1260
10 | CC(O)(CN(C1(C)CC1)S(C)(=O)=O)Cn1c2ccc(F)cc2c2cc(F)ccc21 (stereo not shown) [Compound 189, N-(3-(3,6-Difluoro-9H-carbazol-9-yl)-2-hydroxy-2-methylpropyl)-N-(1-methylcyclopropyl)methanesulfonamide] | 1290
11 | O=S1(=O)CCCCN1CC(O)Cn1c2cc(F)ccc2c2ccc(F)cc21 (stereo not shown) [Compound 91, N-(3-(2,7-Difluoro-9H-carbazol-9-yl)-2-hydroxypropyl)-1,2-thiazinane 1,1-dioxide] | 150
12 | CS(=O)(=O)N(CC(O)Cn1c2ccc(F)cc2c2cc(F)ccc21)C1CCC1 (stereo not shown) [Compound 119, N-Cyclobutyl-N-(3-(3,6-difluoro-9H-carbazol-9-yl)-2-hydroxypropyl)methanesulfonamide] | 37
13 | CC(C)CS(=O)(=O)N(Cc1ccco1)CC(O)Cn1c2ccccc2c2ccccc21 (stereo not shown) [Compound 13, N-(3-(9H-Carbazol-9-yl)-2-hydroxypropyl)-N-(furan-2-ylmethyl)-2-methylpropane-1-sulfonamide] | 454
14 | CC1(N(CC(O)Cn2c3ccccc3c3ccccc32)S(C)(=O)=O)COC1 (stereo not shown) [Compound 144, N-(3-(9H-Carbazol-9-yl)-2-hydroxypropyl)-N-(3-methyloxetan-3-yl)methanesulfonamide] | 2160
15 | CS(=O)(=O)N(CC(O)Cn1c2ccccc2c2ccccc21)CC1CCCO1 (stereo not shown) [Compound 51, N-(3-(9H-Carbazol-9-yl)-2-hydroxypropyl)-N-((tetrahydrofuran-2-yl)methyl)methanesulfonamide] | 371
16 | CS(=O)(=O)N(Cc1ccc(F)cc1)CC(O)Cn1c2ccccc2c2ccccc21 (stereo not shown) [Compound 60, N-(3-(9H-Carbazol-9-yl)-2-hydroxypropyl)-N-(4-fluorobenzyl)methanesulfonamide] | 1220
17 | COC(=O)N1CCC(N(CC(O)Cn2c3ccccc3c3ccccc32)S(C)(=O)=O)CC1 (stereo not shown) [Compound 129, Methyl 4-(N-(3-(9H-carbazol-9-yl)-2-hydroxypropyl)methylsulfonamido)piperidine-1-carboxylate] | 386
18 | O=S(=O)(Cc1ccccc1)N(Cc1ccco1)CC(O)Cn1c2ccccc2c2ccccc21 (stereo not shown) [Compound 14, N-(3-(9H-Carbazol-9-yl)-2-hydroxypropyl)-N-(furan-2-ylmethyl)-1-phenylmethanesulfonamide] | 652
19 | O=S1(=O)C(F)CCN1CC(O)Cn1c2ccc(F)cc2c2cc(F)ccc21 (stereo not shown) [Compound 183, 2-(3-(3,6-Difluoro-9H-carbazol-9-yl)-2-hydroxypropyl)-5-fluoroisothiazolidine-1,1-dioxide] | 53
20 | CN1CCN(CC(O)Cn2c3ccc(F)cc3c3cc(F)ccc32)S1(=O)=O (stereo not shown) [Compound 173] | 86

Row | SMILES | EC50 [nM]
21 | CS(=O)(=O)N(Cc1ccco1)CC(O)Cn1c2ccccc2c2ccccc21 (stereo not shown) [Compound 1, N-(3-(9H-Carbazol-9-yl)-2-hydroxypropyl)-N-(furan-2-ylmethyl)methanesulfonamide] | 340
22 | CC(C)c1ccc(N(CC(O)Cn2c3ccc(F)cc3c3cc(F)ccc32)S(C)(=O)=O)cc1 (stereo not shown) [Compound 205, N-(3-(3,6-Difluoro-9H-carbazol-9-yl)-2-hydroxypropyl)-N-(4-isopropylphenyl)methanesulfonamide] | 1210
23 | O=S(=O)(C1CC1)N(Cc1ccco1)CC(O)Cn1c2ccccc2c2ccccc21 (stereo not shown) [Compound 16, N-(3-(9H-Carbazol-9-yl)-2-hydroxypropyl)-N-(furan-2-ylmethyl)cyclopropanesulfonamide] | 1670
24 | CC1CC(N(CC(O)Cn2c3ccc(F)cc3c3cc(F)ccc32)S(C)(=O)=O)C1 (stereo not shown) [Compound 190, N-(3-(3,6-Difluoro-9H-carbazol-9-yl)-2-hydroxypropyl)-N-(3-methylcyclobutyl)methanesulfonamide] | 211
25 | CS(=O)(=O)N(CC(O)Cn1c2ccccc2c2ccccc21)c1ccc(F)cc1 (stereo not shown) [Compound 24, N-(3-(9H-Carbazol-9-yl)-2-hydroxypropyl)-N-(4-fluorophenyl)methanesulfonamide] | 210
26 | CS(=O)(=O)N(CC(O)Cn1c2ccccc2c2ccccc21)c1ccccc1Cl (stereo not shown) [Compound 77, N-(3-(9H-Carbazol-9-yl)-2-hydroxypropyl)-N-(2-chlorophenyl)methanesulfonamide] | 750
27 | CC(C)N(CC(O)Cn1c2ccccc2c2ccccc21)S(C)(=O)=O (stereo not shown) [Compound 46, N-(3-(9H-Carbazol-9-yl)-2-hydroxypropyl)-N-isopropylmethanesulfonamide] | 100
28 | CN(CC(O)Cn1c2ccccc2c2ccccc21)S(C)(=O)=O (stereo not shown) [Compound 32, N-(3-(9H-Carbazol-9-yl)-2-hydroxypropyl)-N-methylmethanesulfonamide] | 100
29 | O=S1(=O)C(F)CCCN1CC(O)Cn1c2ccccc2c2ccccc21 (stereo not shown) [Compound 121, 2-(3-(9H-Carbazol-9-yl)-2-hydroxypropyl)-6-fluoro-1,2-thiazinane-1,1-dioxide] | 51
30 | O=S1(=O)CCCN1CC(O)Cn1c2ccc(F)cc2c2ccc(F)cc21 (stereo not shown) [Compound 101, N-(3-(2,6-Difluoro-9H-carbazol-9-yl)-2-hydroxypropyl)-isothiazolidine-1,1-dioxide] | 50
31 | CS(=O)(=O)N(CC(O)Cn1c2ccccc2c2ccccc21)C1CCCCC1(F)F (stereo not shown) [Compound 135, N-(3-(9H-Carbazol-9-yl)-2-hydroxypropyl)-N-(2,2-difluorocyclohexyl)methanesulfonamide] | 609
32 | O=S1(=O)CCCN1CC(O)Cn1c2cc(F)ccc2c2c(F)cccc21 (stereo not shown) [Compound 97, N-(3-(2,5-Difluoro-9H-carbazol-9-yl)-2-hydroxypropyl)-isothiazolidine-1,1-dioxide] | 319
33 | CC1(N(CC(O)Cn2c3ccc(F)cc3c3cc(F)ccc32)S(C)(=O)=O)CCCC1 (stereo not shown) [Compound 196, N-(3-(3,6-Difluoro-9H-carbazol-9-yl)-2-hydroxypropyl)-N-(1-methylcyclopentyl)methanesulfonamide] | 149
34 | CS(=O)(=O)N(CC(O)Cn1c2ccccc2c2ccccc21)c1ccc(Cl)cc1 (stereo not shown) [Compound 22, N-(3-(9H-Carbazol-9-yl)-2-hydroxypropyl)-N-(4-chlorophenyl)methanesulfonamide] | 510
35 | CS(=O)(=O)NCC(O)Cn1c2cc(F)ccc2c2ccc(F)cc21 (stereo not shown) [Compound 162, N-(3-(2,7-Difluoro-9H-carbazol-9-yl)-2-hydroxypropyl)methanesulfonamide] | 1990
36 | CS(=O)(=O)N(CC(O)Cn1c2ccccc2c2ccccc21)C1CCC(F)(F)CC1 (stereo not shown) [Compound 128, N-(3-(9H-Carbazol-9-yl)-2-hydroxypropyl)-N-(4,4-difluorocyclohexyl)methanesulfonamide] | 372
37 | CS(=O)(=O)N(CC(O)Cn1c2ccc(F)cc2c2ccc(F)cc21)C1CCC1 (stereo not shown) [Compound 166, N-Cyclobutyl-N-(3-(2,6-difluoro-9H-carbazol-9-yl)-2-hydroxypropyl)methanesulfonamide] | 147
38 | CC(O)(Cn1c2ccc(F)cc2c2cc(F)ccc21)C(C)(C)N1CCCS1(=O)=O (stereo not shown) [Compound 245, 2-(4-(3,6-Difluoro-9H-carbazol-9-yl)-3-hydroxy-2,3-dimethylbutan-2-yl)-isothiazolidine-1,1-dioxide] | 1150
39 | CS(=O)(=O)N(Cc1ccccc1)CC(O)Cn1c2ccccc2c2ccccc21 (stereo not shown) [Compound 44, N-(3-(9H-Carbazol-9-yl)-2-hydroxypropyl)-N-benzylmethanesulfonamide] | 8270
40 | Cc1cccc(N(CC(O)Cn2c3ccccc3c3ccccc32)S(C)(=O)=O)c1 (stereo not shown) [Compound 63, N-(3-(9H-Carbazol-9-yl)-2-hydroxypropyl)-N-m-tolylmethanesulfonamide] | 199
